# From PMC12494099, “Discovery and Characterization of Novel IKZF1/3 Glue Degraders against Multiple Hematological Cancer Cell Lines” (Oncology Research, 2025)
# Assays:
# Type in all cases: cell-based
# [1] = tested on: control vector NCI-H929 cells; assay: Cell viability, control vector cells; details: Homo sapiens, NCI-H929, 96 h
# Description: (§1) Multiple cell lines (NCI-H929, OPM-2, U937, Ocl-Ly3, RPMI-8226, MOLM-13, Skm-1, MUTZ-1, SU-DHL-4, TMD8, U2932, WSU-DLCL-2, MV-4-11 and KG-1 cells) were plated into 96-well plates. The plated at a density of 15,000 cells per well, and each well contained 100 µL of medium. Subsequently, different compounds (MGD-AX, MGD-BX, MGD-CX) were added to each well. These compounds’ concentrations were set at 0, 0.01, 0.033, 0.1, 0.33, 1, 3.3, 10 and 33 μM, and the cells were incubated with the compounds for 96 h. To evaluate the antiproliferative effects of these compounds, the Cell Counting Kit-8 (CCK-8, #CX007, Epizyme, Shanghai, China) was used. All procedures were carried out in strict accordance with the manufacturer’s instructions (Dojindo Laboratories, Mamoto Ken, Japan). The half maximal inhibitory concentrations (IC50) values, which represent the concentrations of the test compounds that can inhibit 50% of cell activity, were calculated using GraphPad Prism 8.0 (GraphPad Software Inc., San Diego, CA, USA).
# (§2) […] NCI-H929 and MV-4-11 cells were seeded at a density of 1 × 10^6 cells/well in 6-well tissue culture-treated plates. According to the manufacturer’s protocol (Santa Cruz Biotechnology, Inc, Dallas, TX, USA), CRBN CRISPR/Cas9 knockout Plasmid (#sc-412142), CRBN HDR plasmid (#sc-412142-HDR), UltraCruz® Transfection Reagent (#sc-395739) were pre-mixed in Plasmid Transfection Medium (#sc-108062) at a 1:1:2 mass ratio, and cells were transiently transfected in a 37°C, 5% CO2 incubator. After 72 h of infection, the medium was replaced with complete medium containing 3 μg/mL puromycin for 5–7 days. On day 7, GFP-positive cells were sorted as single cells into 96-well plates. Isolated single-cell clones were screened via western blot analysis, using wild-type NCI-H929 or MV-4-11 cells as positive controls.
# [2] = tested on: control vector MV-4-11 cells; assay: Cell viability, control vector cells; details: Homo sapiens, MV4-11, 96 h
# Description: as §1, §2
# CK1α-HiBiT = biological target: T1, CK1α-HiBiT (Homo sapiens, UniProt P48729); assay: Quantitative degradation assay using the HiBiT system (HEK293T); details: increased dosing to 10 μM, 24 h
# T1 construct: expressed in transfected cells; host or cells: HEK293T
# Description: (§3) An in vitro quantitative degradation assay utilizing the HiBiT system was carried out as previously described. To evaluate the degradation of IKZF1, IKZF2, and IKZF3 proteins, HEK293T cell lines stably expressing IKZF1-, IKZF2-, IKZF3-, GSPT1- or CK1α-HiBiT were cultured in 96-well plates at 12,000 cells per well. The cells were treated with different concentrations of the test compounds (MGD-A7 and MGD-C9) with concentrations of 0, 0.01, 0.033, 0.1, 0.33, 1, 3.3, 10 and 33 μM for the specified time intervals. After the treatment, cell lysis was carried out using the Nano-Glo HiBiT Lytic Detection System (#N3040, Promega). All lysis operations were strictly carried out according to the manufacturer’s specific protocol. Then, the SpectraMax iD3 instrument (Molecular Devices, San Jose, CA, USA) was used to detect the luminescent signals released by the HiBiT-tagged neosubstrates.
# GSPT1-HiBiT = biological target: T2, GSPT1-HiBiT (Homo sapiens, UniProt P15170); assay: as above; details: increased dosing to 10 μM, 24 h
# T2 construct: expressed in transfected cells; host or cells: HEK293T
# Description: as §3
# IKZF2-HiBiT = biological target: T3, IKZF2-HiBiT (Homo sapiens, UniProt Q9UKS7); assay: as above; details: dose response 24 h and time course 1 µM
# T3 construct: expressed in transfected cells; host or cells: HEK293T
# Description: as §3
# NCI-H929 = assay: Cell apoptosis assay (Annexin V flow cytometry); details: NCI-H929, 1 and 10 µM
# Description: (§4) Cells (NCI-H929 and MV-4-11) were seeded at a density of 1 × 10^6 cells per well into 6-well dishes. […] Apoptosis was assessed using an Annexin V-FITC kit (#ab14085; Abcam, MA, USA) on a FACS Calibur Flow Cytometer (Becton Dickinson, Franklin Lakes, NJ, USA). For cell cycle analysis, cells were fixed in 75% ethanol (−20°C/overnight), washed with PBS (pH = 7.2–7.4, 1×), treated with RNase A (0.2 mg/mL, 37°C/30 min), stained with PI (10 μg/mL), and analyzed on the same instrument. Finally, the samples were analyzed using a FACS Calibur Flow Cytometer.
# MV-4-11 = assay: Cell apoptosis assay (Annexin V flow cytometry)
# Description: as §4
# WSU-DLCL-2 = assay: Cell viability (CCK-8) assay; details: Homo sapiens, WSUDLCL2; DLBCL, 96 h; read-out: IC50 (μM) WSU-DLCL-2
# Summary of the method: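 CCK-8 read-out of viability was used to gauge antiproliferative activity. Each well held 15,000 cells, and compounds were added after plating.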
# CRBN^−/− NCI-H929 cells [3] = assay: Cell apoptosis assay, CRBN knockout cells
# Description: […] NCI-H929 and MV-4-11 cells were seeded at a density of 1 × 10^6 cells/well in 6-well tissue culture-treated plates. […] On day 7, GFP-positive cells were sorted as single cells into 96-well plates. Isolated single-cell clones were screened via western blot analysis, using wild-type NCI-H929 or MV-4-11 cells as positive controls.
# Cells (NCI-H929 and MV-4-11) were seeded at a density of 1 × 10^6 cells per well into 6-well dishes. […] Apoptosis was assessed using an Annexin V-FITC kit (#ab14085; Abcam, MA, USA) on a FACS Calibur Flow Cytometer (Becton Dickinson, Franklin Lakes, NJ, USA). […] Finally, the samples were analyzed using a FACS Calibur Flow Cytometer.
# [4] = tested on: control vector NCI-H929 cells; assay: Cell apoptosis assay, control vector cells
# Description: as §2, §4
# CRBN^−/− MV-4-11 cells = assay: Cell viability, CRBN knockout cells; details: Homo sapiens, MV4-11, 96 h
# Description: as §1, §2
# CRBN^−/− NCI-H929 cells [5] = assay: Cell viability, CRBN knockout cells; details: Homo sapiens, NCI-H929, 96 h
# Description: as §1, §2
# T2 sequence (Q96SW2 whole entry partner): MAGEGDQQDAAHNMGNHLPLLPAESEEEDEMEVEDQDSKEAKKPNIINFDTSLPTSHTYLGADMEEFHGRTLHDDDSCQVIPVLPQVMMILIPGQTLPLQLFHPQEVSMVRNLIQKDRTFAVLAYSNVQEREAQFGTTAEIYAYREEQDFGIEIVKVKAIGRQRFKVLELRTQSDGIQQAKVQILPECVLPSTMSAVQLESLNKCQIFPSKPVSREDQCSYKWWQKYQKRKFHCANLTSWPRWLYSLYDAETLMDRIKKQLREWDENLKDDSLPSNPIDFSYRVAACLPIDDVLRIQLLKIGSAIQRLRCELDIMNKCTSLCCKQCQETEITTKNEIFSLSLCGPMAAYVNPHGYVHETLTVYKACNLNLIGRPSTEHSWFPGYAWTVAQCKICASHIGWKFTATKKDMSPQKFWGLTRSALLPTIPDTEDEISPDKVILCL
# T2 sequence (Q16531 whole entry partner): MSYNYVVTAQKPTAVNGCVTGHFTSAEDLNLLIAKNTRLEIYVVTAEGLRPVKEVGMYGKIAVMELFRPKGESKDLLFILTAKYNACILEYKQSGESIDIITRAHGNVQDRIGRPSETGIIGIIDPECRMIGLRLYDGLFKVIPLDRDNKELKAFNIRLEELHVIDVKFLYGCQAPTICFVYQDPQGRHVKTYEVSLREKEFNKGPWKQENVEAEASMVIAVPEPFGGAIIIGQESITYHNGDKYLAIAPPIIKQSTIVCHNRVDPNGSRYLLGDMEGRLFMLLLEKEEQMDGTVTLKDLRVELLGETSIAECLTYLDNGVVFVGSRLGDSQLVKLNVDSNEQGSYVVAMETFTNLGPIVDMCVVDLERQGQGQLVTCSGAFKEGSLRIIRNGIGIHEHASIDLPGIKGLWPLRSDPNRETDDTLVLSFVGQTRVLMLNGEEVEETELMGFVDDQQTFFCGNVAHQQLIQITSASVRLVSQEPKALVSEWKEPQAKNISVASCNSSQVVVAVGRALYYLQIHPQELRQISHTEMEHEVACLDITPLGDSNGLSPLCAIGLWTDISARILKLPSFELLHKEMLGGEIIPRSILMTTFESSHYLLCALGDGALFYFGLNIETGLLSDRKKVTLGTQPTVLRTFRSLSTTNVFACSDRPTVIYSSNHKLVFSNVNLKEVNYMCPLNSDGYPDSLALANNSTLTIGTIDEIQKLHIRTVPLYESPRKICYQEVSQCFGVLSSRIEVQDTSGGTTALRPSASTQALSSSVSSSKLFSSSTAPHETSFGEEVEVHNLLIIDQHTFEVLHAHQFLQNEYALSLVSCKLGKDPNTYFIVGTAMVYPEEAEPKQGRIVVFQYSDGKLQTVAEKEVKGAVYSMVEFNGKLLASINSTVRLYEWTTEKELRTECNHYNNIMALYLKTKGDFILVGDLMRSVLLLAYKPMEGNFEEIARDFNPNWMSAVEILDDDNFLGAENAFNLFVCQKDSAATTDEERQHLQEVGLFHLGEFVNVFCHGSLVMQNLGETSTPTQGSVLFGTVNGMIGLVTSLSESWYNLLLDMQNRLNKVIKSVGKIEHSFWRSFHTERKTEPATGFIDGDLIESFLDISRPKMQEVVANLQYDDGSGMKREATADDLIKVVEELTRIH
# T2 sequence (P15170 whole entry): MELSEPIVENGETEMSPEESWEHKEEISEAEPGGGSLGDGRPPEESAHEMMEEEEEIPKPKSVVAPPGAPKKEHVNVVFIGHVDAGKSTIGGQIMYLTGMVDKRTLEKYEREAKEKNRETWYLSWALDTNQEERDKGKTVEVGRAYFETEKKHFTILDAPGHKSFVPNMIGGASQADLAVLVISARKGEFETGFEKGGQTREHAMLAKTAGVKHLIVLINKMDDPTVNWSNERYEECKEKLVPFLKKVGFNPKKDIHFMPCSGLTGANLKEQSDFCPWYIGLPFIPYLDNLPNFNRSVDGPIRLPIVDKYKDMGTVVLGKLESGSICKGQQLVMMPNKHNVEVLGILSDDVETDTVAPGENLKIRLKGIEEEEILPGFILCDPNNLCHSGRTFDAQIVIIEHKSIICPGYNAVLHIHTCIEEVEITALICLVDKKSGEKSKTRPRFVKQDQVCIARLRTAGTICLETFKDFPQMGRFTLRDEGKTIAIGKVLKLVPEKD
# T1 sequence (Q96SW2 whole entry partner): as the sequence (Q96SW2 whole entry partner) above
# T1 sequence (Q16531 whole entry partner): as the sequence (Q16531 whole entry partner) above
# T1 sequence (P48729 whole entry): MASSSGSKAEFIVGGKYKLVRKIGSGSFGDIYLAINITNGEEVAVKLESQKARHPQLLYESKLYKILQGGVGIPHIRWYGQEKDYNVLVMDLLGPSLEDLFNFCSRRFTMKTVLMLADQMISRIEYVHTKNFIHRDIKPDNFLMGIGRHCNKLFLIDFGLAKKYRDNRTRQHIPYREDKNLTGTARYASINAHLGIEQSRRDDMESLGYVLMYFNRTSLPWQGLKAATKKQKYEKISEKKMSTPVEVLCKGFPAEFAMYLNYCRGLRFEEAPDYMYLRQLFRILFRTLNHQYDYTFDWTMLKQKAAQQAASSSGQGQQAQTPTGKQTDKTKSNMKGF
# T3 sequence (Q96SW2 whole entry partner): as the sequence (Q96SW2 whole entry partner) above
# T3 sequence (Q16531 whole entry partner): as the sequence (Q16531 whole entry partner) above
# T3 sequence (Q9UKS7 whole entry): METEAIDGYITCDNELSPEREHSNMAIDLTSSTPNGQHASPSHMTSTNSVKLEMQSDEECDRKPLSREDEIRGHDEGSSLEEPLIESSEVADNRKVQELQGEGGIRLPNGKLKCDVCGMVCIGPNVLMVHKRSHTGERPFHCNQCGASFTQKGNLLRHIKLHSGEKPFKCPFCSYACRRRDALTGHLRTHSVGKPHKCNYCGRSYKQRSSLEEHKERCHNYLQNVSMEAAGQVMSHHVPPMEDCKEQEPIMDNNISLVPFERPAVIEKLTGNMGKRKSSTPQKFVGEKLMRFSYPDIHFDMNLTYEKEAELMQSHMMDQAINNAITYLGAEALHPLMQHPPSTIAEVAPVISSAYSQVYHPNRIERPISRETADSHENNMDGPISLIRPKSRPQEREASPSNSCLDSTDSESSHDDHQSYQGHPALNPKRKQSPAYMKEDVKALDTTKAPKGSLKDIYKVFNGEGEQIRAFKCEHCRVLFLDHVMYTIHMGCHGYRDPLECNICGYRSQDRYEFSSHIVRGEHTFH
smiles,measurement,setting,value
"CN1CCN(Cc2cccc(C(=O)NC3CCC(=O)NC3=O)c2F)C(=O)C1 (centres unmarked) [MGD-C9, N-(2,6-dioxopiperidin-3-yl)-2-fluoro-3-((4-methyl-2-oxopiperazin-1-yl)methyl)benzamide]",IC50,[1],313 nM
same,IC50,[2],198 nM
same,degradation effect on luminescence signals of CK1α-HiBit,CK1α-HiBiT,minimal degradation effects
same,degradation effect on luminescence signals of GSPT1-HiBit,GSPT1-HiBiT,minimal degradation effects
same,effect on luminescence signals from IKZF2-HiBit,IKZF2-HiBiT,minimal inhibition
same,apoptosis (in words),NCI-H929,significantly induced apoptosis
same,apoptosis rate,"MV-4-11; MV-4-11, 1 µM",26.0%
same,apoptosis rate,"MV-4-11; MV-4-11, 10 µM",40.7%
same,IC50,WSU-DLCL-2,2.24 µM
same,apoptosis (in words),CRBN^−/− NCI-H929 cells [3],neither compound elicited apoptosis
same,apoptosis (in words),[4],induced significant apoptosis
same,IC50,CRBN^−/− MV-4-11 cells,> 33000 nM
same,IC50,CRBN^−/− NCI-H929 cells [5],> 33000 nM
"CN1CCN(Cc2cccc(C(=O)NC3CCC(=O)NC3=O)c2)CC1 (centres unmarked) [MGD-A7, N-(2,6-dioxopiperidin-3-yl)-3-((4-methylpiperazin-1-yl)methyl)benzamide]",IC50,[1],638 nM
same,IC50,[2],676 nM
same,degradation effect on luminescence signals of CK1α-HiBit,CK1α-HiBiT,minimal degradation effects
same,degradation effect on luminescence signals of GSPT1-HiBit,GSPT1-HiBiT,minimal degradation effects
same,effect on luminescence signals from IKZF2-HiBit,IKZF2-HiBiT,minimal inhibition
same,apoptosis (in words),NCI-H929,significantly induced apoptosis
same,apoptosis rate,"MV-4-11; MV-4-11, 1 µM",22.5%
same,apoptosis rate,"MV-4-11; MV-4-11, 10 µM",36.6%
same,IC50,WSU-DLCL-2,3.82 µM
same,apoptosis (in words),CRBN^−/− NCI-H929 cells [3],neither compound elicited apoptosis
same,apoptosis (in words),[4],induced significant apoptosis
same,IC50,CRBN^−/− MV-4-11 cells,> 33000 nM
same,IC50,CRBN^−/− NCI-H929 cells [5],> 33000 nM
